Reference: ChEMBL document CHEMBL1127157, “Synthesis and biological activity of 2-desamino and 4-deoxy analogs of 5,10-dideazatetrahydrofolic acid (DDATHF)” (Bioorg Med Chem Lett, 1993)
Converted amounts (≈) assume the structure as drawn.

Experiments:
[1] = target: T1, Trifunctional purine biosynthetic protein adenosine-3 (Homo sapiens, UniProt P22102); assay: Tested for the inhibition of recombinant human monofunctional Glycinamide ribonucleotide formyltransferase
T1 sequence (P22102 whole entry): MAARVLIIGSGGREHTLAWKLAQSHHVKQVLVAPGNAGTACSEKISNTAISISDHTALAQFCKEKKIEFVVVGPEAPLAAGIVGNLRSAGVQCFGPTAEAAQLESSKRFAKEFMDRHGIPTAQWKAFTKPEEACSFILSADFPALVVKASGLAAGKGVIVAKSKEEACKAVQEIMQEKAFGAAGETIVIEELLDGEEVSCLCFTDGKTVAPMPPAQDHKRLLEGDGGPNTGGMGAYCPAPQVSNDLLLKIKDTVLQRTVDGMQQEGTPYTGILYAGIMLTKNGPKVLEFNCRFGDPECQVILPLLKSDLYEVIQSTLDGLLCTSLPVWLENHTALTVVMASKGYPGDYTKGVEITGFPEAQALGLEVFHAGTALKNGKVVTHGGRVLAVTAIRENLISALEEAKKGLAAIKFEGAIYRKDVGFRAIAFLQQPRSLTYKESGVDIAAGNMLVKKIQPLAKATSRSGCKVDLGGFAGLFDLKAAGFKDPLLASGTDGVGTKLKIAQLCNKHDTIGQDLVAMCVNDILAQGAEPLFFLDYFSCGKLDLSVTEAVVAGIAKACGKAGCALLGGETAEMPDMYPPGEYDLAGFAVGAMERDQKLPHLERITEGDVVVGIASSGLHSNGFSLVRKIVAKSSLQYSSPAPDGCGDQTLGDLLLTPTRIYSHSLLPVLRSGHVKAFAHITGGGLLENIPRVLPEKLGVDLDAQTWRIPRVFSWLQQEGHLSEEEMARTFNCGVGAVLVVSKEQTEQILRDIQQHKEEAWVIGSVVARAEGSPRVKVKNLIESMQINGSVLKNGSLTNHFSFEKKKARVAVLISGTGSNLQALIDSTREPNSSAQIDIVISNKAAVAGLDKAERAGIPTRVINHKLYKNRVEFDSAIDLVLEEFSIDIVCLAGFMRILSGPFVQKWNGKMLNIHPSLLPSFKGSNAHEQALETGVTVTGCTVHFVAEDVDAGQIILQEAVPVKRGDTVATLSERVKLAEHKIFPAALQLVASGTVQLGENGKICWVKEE

CCRF-CEM = assay: Tested for the growth inhibition of CCRF-CEM, a human T-cell derived lymphoblastic leukemic cell line; assay type: functional, cell-based
[2] = target: T2, Trifunctional purine biosynthetic protein adenosine-3 (Mus musculus, UniProt Q64737); assay: Tested for the inhibition of trifunctional Glycinamide ribonucleotide formyltransferase isolated from murine L1210 cells.; assay type: functional
T2 sequence (Q64737 whole entry): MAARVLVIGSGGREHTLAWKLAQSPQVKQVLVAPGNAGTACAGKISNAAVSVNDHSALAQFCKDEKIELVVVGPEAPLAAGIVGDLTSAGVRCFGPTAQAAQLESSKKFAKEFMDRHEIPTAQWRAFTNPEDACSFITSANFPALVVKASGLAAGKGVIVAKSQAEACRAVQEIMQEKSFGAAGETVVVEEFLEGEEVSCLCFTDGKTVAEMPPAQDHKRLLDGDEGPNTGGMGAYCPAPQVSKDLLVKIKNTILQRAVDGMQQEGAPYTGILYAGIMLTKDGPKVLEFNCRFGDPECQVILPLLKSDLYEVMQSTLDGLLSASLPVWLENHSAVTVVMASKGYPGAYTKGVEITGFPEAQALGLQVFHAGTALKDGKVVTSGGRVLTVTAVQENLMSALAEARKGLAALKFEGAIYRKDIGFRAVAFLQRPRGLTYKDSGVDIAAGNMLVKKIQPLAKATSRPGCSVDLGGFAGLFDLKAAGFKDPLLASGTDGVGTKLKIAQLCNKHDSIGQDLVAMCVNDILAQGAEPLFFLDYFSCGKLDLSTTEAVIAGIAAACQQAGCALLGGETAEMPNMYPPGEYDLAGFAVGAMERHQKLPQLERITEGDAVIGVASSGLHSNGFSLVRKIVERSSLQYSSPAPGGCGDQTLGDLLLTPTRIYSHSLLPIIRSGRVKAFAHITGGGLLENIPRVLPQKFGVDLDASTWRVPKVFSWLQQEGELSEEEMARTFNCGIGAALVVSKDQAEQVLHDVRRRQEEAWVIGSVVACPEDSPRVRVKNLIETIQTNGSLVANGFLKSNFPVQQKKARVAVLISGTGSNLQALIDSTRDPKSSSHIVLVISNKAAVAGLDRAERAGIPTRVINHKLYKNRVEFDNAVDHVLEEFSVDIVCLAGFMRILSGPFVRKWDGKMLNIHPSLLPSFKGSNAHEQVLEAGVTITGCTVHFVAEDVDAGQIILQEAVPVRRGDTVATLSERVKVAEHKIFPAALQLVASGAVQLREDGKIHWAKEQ

SMILES | Ki [1] | IC50 (CCRF-CEM) | Ki [2]
Nc1ncc2c(n1)NCC(CCc1ccc(C(=O)N[C@@H](CCC(=O)O)C(=O)O)cc1)C2 (stereo partly specified) | 186 µM | 4 ng/mL (≈ 9.36 nM) | –
O=C(O)CC[C@H](NC(=O)c1ccc(CCC2CNc3ncnc(O)c3C2)cc1)C(=O)O (stereo partly specified) | 82.1 µM | > 20000 ng/mL | 27 µM
Nc1nc2c(c(=O)[nH]1)C[C@@H](CCc1ccc(C(=O)N[C@@H](CCC(=O)O)C(=O)O)cc1)CN2 [LOMETREXOL] | – | – | 0.12 µM
